Measurements taken from ChEMBL document CHEMBL1150749, “Novel Cleistanthane Diterpenoids from Pogostemon auricularis” (1988).

Legend:
Type in all cases: functional
Conditions in all cases: Cavia porcellus
Ileum [1] = assay: Inhibition of spasmogen response in guinea pig ileum at 2.5 ug/mL
Ileum [2] = assay: Inhibition of spasmogen response in guinea pig ileum at 10 ug/mL
Ileum [3] = assay: Inhibition of spasmogen response in guinea pig ileum at 5 ug/mL

Compound: C=C[C@H]1C(=C)CC[C@H]2[C@H]1[C@@H](OC(C)=O)C[C@@H]1[C@]2(C)CCC[C@@]1(C)C(=O)O
- inhibition at 2.5 µg/mL (Ileum [1]): 10%
- inhibition at 10 µg/mL (Ileum [2]): 69%
- inhibition at 5 µg/mL (Ileum [3]): 19%
